Experimental data from patent US12492173B2, “Herbicidal substituted N-tetrazolyl aryl carboxamides” (Bayer Aktiengesellschaft, priority 2019, dated 2025).

What was measured:
Format in all cases: in vivo
[1] = tested on: Cyperus esculentus; assay: Post-emergence herbicidal action, CYPES; design: key: % herbicidal action vs untreated; 100 = plants died, 0 = like control; conditions: post-emergence; for herbicidal action CYPES: dosage 80 g/ha
Procedure, shortened: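 Percent herbicidal effect was rated visually about 3 weeks after treatment, relative to untreated plants (0% = like control, 100% = dead). Compounds, formulated as WP or EC, went on as aqueous spray (600–800 l/ha, 0.2% wetting agent) to one-leaf-stage plants 2–3 weeks post-sowing in sandy loam.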

[2] = tested on: Hordeum murinum; assay: Post-emergence herbicidal action, HORMU; design: key: % herbicidal action: 100 = plants died, 0 = like control; conditions: post-emergence, dosage 80 g/ha
Protocol: (§1) [table] 2. Post-Emergence Herbicidal Action Against Harmful Plants Seeds of monocotyledonous and dicotyledonous weed and crop plants are laid out in sandy loam soil in wood-fiber pots, covered with soil and cultivated in a greenhouse under good growth conditions. 2 to 3 weeks after sowing, the test plants are treated at the one-leaf stage. The compounds of the invention, formulated in the form of wettable powders (WP) or as emulsion concentrates (EC), are then sprayed onto the green parts of the plants in the form of an aqueous suspension or emulsion at a water application rate equating to 600 to 800 l/ha, with addition of 0.2% wetting agent. After the test plants have been left to stand in the greenhouse under optimal growth conditions for about 3 weeks, the action of the preparations is assessed visually in comparison to untreated controls (herbicidal action in percent (%): 100% activity=the plants have died, 0% activity=like control plants). […] The tables below illustrate, in an exemplary manner, the post-emergence herbicidal action of the compounds according to the invention, the herbicidal activity being stated in percent. In the experiments that follow, herbicidal action of numerous inventive compounds and the known compounds that are structurally closest from D1 (WO 2012/028579 A1) and D2 (WO 2018/202535 A1) were compared under the above-specified conditions by the pre-emergence and post-emergence method. The example numbers given in the tables relate to the compounds disclosed in the respective documents. In addition to the compounds disclosed in D1 and D2, the following compounds V-1 to V-14 that are encompassed by D1 or D2 but are not compounds specified therein were used in the comparative experiments: • V-1: 2-(methylsulfanyl)-3-(methylsulfinyl)-N-(1-methyl-1H-tetrazol-5-yl)-4-(trifluoromethyl)benzamide • V-2: 2-(methylsulfanyl)-3-(methylsulfonyl)-N-(1-methyl-1H-tetrazol-5-yl)-4-(trifluoromethyl)benzamide • V-3: 2,3-bis(ethylsulfanyl)-N-(1-methyl-1H-tetrazol-5-yl)-4-(trifluoromethyl)benzamide • V-4: 2-chloro-3-(ethylsulfanyl)-N-(1-methyl-1H-tetrazol-5-yl)-4-(trifluoromethyl)benzamide • V-5: 2-chloro-4-iodo-3-(methylsulfanyl)-N-(1-methyl-1H-tetrazol-5-yl)benzamide • V-6: 2-chloro-4-iodo-3-(methylsulfinyl)-N-(1-methyl-1H-tetrazol-5-yl)benzamide • V-7: 2-chloro-4-iodo-3-(methylsulfonyl)-N-(1-methyl-1H-tetrazol-5-yl)benzamide • V-8: 2-bromo-3-(methylsulfanyl)-N-(1-methyl-1H-tetrazol-5-yl)-4-(trifluoromethyl)benzamide • V-9: 2-bromo-3-(methylsulfinyl)-N-(1-methyl-1H-tetrazol-5-yl)-4-(trifluoromethyl)benzamide • V-10: 2-bromo-3-(methylsulfonyl)-N-(1-methyl-1H-tetrazol-5-yl)-4-(trifluoromethyl)benzamide • V-11: 2-bromo-3-(ethylsulfanyl)-N-(1-methyl-1H-tetrazol-5-yl)-4-(trifluoromethyl)benzamide • V-12: 2-bromo-3-(ethylsulfinyl)-N-(1-methyl-1H-tetrazol-5-yl)-4-(trifluoromethyl)benzamide • V-13: 2-bromo-3-(ethylsulfonyl)-N-(1-methyl-1-1H-tetrazol-5-yl)-4-(trifluoromethyl)benzamide • V-14: 2-cyclopropyl-3-(ethylsulfanyl)-N-(1-methyl-1H-tetrazol-5-yl)-4-(trifluoromethyl)benzamide Herbicidal Pre-Emergence Action: […]

[3] = tested on: Lolium rigidum; assay: Post-emergence herbicidal action, LOLRI; conditions: dosage 80 g/ha
Protocol: as §1

[4] = tested on: Digitaria sanguinalis; assay: Pre-emergence herbicidal action, DIGSA; conditions: dosage 320 g/ha, scored visually after 3 weeks vs untreated controls (100% = plants have died)
Text: 1. Pre-Emergence Herbicidal Action Against Harmful Plants Seeds of monocotyledonous and dicotyledonous weed plants and crop plants are laid out in sandy loam soil in wood-fiber pots and covered with soil. The compounds of the invention, formulated in the form of wettable powders (WP) or as emulsion concentrates (EC), are then applied to the surface of the covering soil in the form of an aqueous suspension or emulsion at a water application rate equating to 600 to 800 l/ha, with addition of 0.2% wetting agent. After the treatment, the pots are placed in a greenhouse and kept under good growth conditions for the trial plants. The damage to the test plants is scored visually after a test period of 3 weeks by comparison with untreated controls (herbicidal activity in percent (%): 100% activity=the plants have died, 0% activity=like control plants). […] The tables below illustrate, in an exemplary manner, the […] herbicidal action of the compounds according to the invention, the herbicidal activity being stated in percent. [table] In the experiments that follow, herbicidal action of numerous inventive compounds and the known compounds that are structurally closest from D1 (WO 2012/028579 A1) and D2 (WO 2018/202535 A1) were compared under the above-specified conditions by the pre-emergence and post-emergence method. The example numbers given in the tables relate to the compounds disclosed in the respective documents. In addition to the compounds disclosed in D1 and D2, the following compounds V-1 to V-14 that are encompassed by D1 or D2 but are not compounds specified therein were used in the comparative experiments: • V-1: 2-(methylsulfanyl)-3-(methylsulfinyl)-N-(1-methyl-1H-tetrazol-5-yl)-4-(trifluoromethyl)benzamide • V-2: 2-(methylsulfanyl)-3-(methylsulfonyl)-N-(1-methyl-1H-tetrazol-5-yl)-4-(trifluoromethyl)benzamide • V-3: 2,3-bis(ethylsulfanyl)-N-(1-methyl-1H-tetrazol-5-yl)-4-(trifluoromethyl)benzamide • V-4: 2-chloro-3-(ethylsulfanyl)-N-(1-methyl-1H-tetrazol-5-yl)-4-(trifluoromethyl)benzamide • V-5: 2-chloro-4-iodo-3-(methylsulfanyl)-N-(1-methyl-1H-tetrazol-5-yl)benzamide • V-6: 2-chloro-4-iodo-3-(methylsulfinyl)-N-(1-methyl-1H-tetrazol-5-yl)benzamide • V-7: 2-chloro-4-iodo-3-(methylsulfonyl)-N-(1-methyl-1H-tetrazol-5-yl)benzamide • V-8: 2-bromo-3-(methylsulfanyl)-N-(1-methyl-1H-tetrazol-5-yl)-4-(trifluoromethyl)benzamide • V-9: 2-bromo-3-(methylsulfinyl)-N-(1-methyl-1H-tetrazol-5-yl)-4-(trifluoromethyl)benzamide • V-10: 2-bromo-3-(methylsulfonyl)-N-(1-methyl-1H-tetrazol-5-yl)-4-(trifluoromethyl)benzamide • V-11: 2-bromo-3-(ethylsulfanyl)-N-(1-methyl-1H-tetrazol-5-yl)-4-(trifluoromethyl)benzamide • V-12: 2-bromo-3-(ethylsulfinyl)-N-(1-methyl-1H-tetrazol-5-yl)-4-(trifluoromethyl)benzamide • V-13: 2-bromo-3-(ethylsulfonyl)-N-(1-methyl-1-1H-tetrazol-5-yl)-4-(trifluoromethyl)benzamide • V-14: 2-cyclopropyl-3-(ethylsulfanyl)-N-(1-methyl-1H-tetrazol-5-yl)-4-(trifluoromethyl)benzamide Herbicidal Pre-Emergence Action: […]

[5] = tested on: Digitaria sanguinalis; assay: Post-emergence herbicidal action, DIGSA; design: key: % herbicidal action: 100 = plants died, 0 = like control
Protocol: as §1

[6] = tested on: Cyperus esculentus; assay: Pre-emergence herbicidal action, CYPES; design: key: % activity: 100 = plants have died, 0 = like control plants; conditions: comparative experiment, 20 g of a.i./ha
Procedure, shortened: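 Sown pots (sandy loam) sprayed pre-emergence → greenhouse → visual rating at 3 weeks; % activity vs untreated control, 100% = dead.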

SMILES	herbicidal action CYPES [1]	herbicidal action HORMU [2]	herbicidal action LOLRI [3]	herbicidal activity DIGSA [4]	herbicidal action DIGSA ([5]; Dosage 80 g/ha)	further results
Cn1nnnc1NC(=O)c1ccc(C(F)(F)F)c(CSC2CC2)c1Cl [Example 1-302]	80%	90%	90%	–	–	–
Cn1nnnc1NC(=O)c1ccc(C(F)(F)F)c(CS(=O)(=O)C2CC2)c1Cl [Example 1-304]	90%	80%	80%	–	–	–
CCn1nnnc1NC(=O)c1ccc(C(F)(F)F)c(CSCCOC)c1Cl [Example 2-305]	100%	100%	80%	–	–	–
CC[S+]([O-])Cc1c(C(F)(F)F)ccc(C(=O)Nc2nnnn2C)c1Cl (racemic) [Example 1-300]	–	90%	90%	100%	–	herbicidal action DIGSA ([5]; post-emergence, dosage 80 g/ha): 100%
CCn1nnnc1NC(=O)c1ccc(C(F)F)c(C[S+]([O-])CC)c1Cl (stereo not shown) [Example 2-324]	–	90%	–	100%	–	herbicidal action DIGSA ([5]; post-emergence, dosage 80 g/ha): 100%
CSc1c(C(=O)Nc2nnnn2C)ccc(C(F)F)c1C[S+](C)[O-] (stereo not shown) [Example 1-171]	–	–	–	100%	100	–
CCn1nnnc1NC(=O)c1ccc(C(F)(F)F)c(C[S+]([O-])CC)c1Cl (stereo not shown) [Example 2-300]	–	90%	80%	100%	–	herbicidal action DIGSA ([5]; post-emergence, dosage 80 g/ha): 100%
CSCc1c(I)ccc(C(=O)Nc2nnnn2C)c1Cl [Example 1-362]	–	100%	80%	–	–	Herbicidal action against CYPES [6]: 80; Herbicidal action against CYPES ([1]; comparative experiment, 5 g of a.i./ha): 30
CCn1nnnc1NC(=O)c1ccc(C(F)F)c(CSC)c1SC [Example 2-170]	–	–	–	100%	100	–
Cn1nnnc1NC(=O)c1ccc(C(F)(F)F)c(C[S+]([O-])CC(F)(F)F)c1Cl (racemic) [Example 1-312]	–	80%	–	100%	–	herbicidal action DIGSA ([5]; post-emergence, dosage 80 g/ha): 100%
Cn1nnnc1NC(=O)c1ccc(C(F)(F)F)c(CS(=O)(=O)CC2CC2)c1Cl [Example 1-316]	–	–	–	100%	100	–
COCC[S+]([O-])Cc1c(C(F)(F)F)ccc(C(=O)Nc2nnnn2C)c1Cl (racemic) [Example 1-306]	–	–	–	100%	100	–
CCCn1nnnc1NC(=O)c1ccc(C(F)F)c(CS(C)(=O)=O)c1SC [Example 3-172]	–	–	–	100%	90	–
CSc1c(C(=O)Nc2nnnn2C)ccc(C(F)(F)F)c1C[S+](C)[O-] (stereo not shown) [Example 1-162]	80%	90%	80%	–	–	Herbicidal action against CYPES [6]: 70
Cn1nnnc1NC(=O)c1ccc(I)c(C[S+](C)[O-])c1Cl (racemic) [Example 1-363]	–	90%	80%	100%	–	herbicidal action DIGSA ([5]; post-emergence, dosage 80 g/ha): 100%
CCCn1nnnc1NC(=O)c1ccc(C(F)(F)F)c(C[S+](C)[O-])c1SC (stereo not shown) [Example 3-162]	–	90%	80%	–	–	–
CCn1nnnc1NC(=O)c1ccc(C(F)(F)F)c(C[S+]([O-])CC2CC2)c1Cl (stereo not shown) [Example 2-315]	–	–	–	100%	100	–
Cn1nnnc1NC(=O)c1ccc(C(F)(F)F)c(C[S+]([O-])C2CC2)c1Cl (racemic) [Example 1-303]	80%	100%	90%	–	–	–
COCCSCc1c(C(F)(F)F)ccc(C(=O)Nc2nnnn2C)c1Cl [Example 1-305]	90%	90%	100%	–	–	–
CCCn1nnnc1NC(=O)c1ccc(C(F)F)c(C[S+](C)[O-])c1SC (stereo not shown) [Example 3-171]	–	–	–	100%	90	–
CCn1nnnc1NC(=O)c1ccc(C(F)F)c(C[S+](C)[O-])c1SC (stereo not shown) [Example 2-171]	–	–	–	100%	90	–
CCCn1nnnc1NC(=O)c1ccc(C(F)F)c(CSC)c1SC [Example 3-170]	–	–	–	100%	100	–
Cn1nnnc1NC(=O)c1ccc(C(F)(F)F)c(CSCC2CC2)c1Cl [Example 1-314]	80%	100%	90%	–	–	–
